In US20260231590A1, “AROMATIC COMPOUND, ORGANIC SEMICONDUCTOR LAYER AND ORGANIC THIN FILM TRANSISTOR” (TOSOH CORPORATION, priority 2023, published 2026):

Experiments:
Format in all cases: physicochemical
[1] = Solution for forming an organic semiconductor layer: dissolved in toluene at 50° C., state after cooling to 25° C.; settings: 0.44 mg in 434 mg of toluene, heated to 50° C., allowed to cool at room temperature (25° C.)
[2] = Evaluation of solubility in organic solvents; settings: room temperature (25° C.), complete dissolution by visual observation
Experimental: Toluene and n-octane were each added to predetermined amounts of the aromatic compounds obtained in Examples 1, 4, 5, 6, 7, 8, 9, 12, 13, 14, 15, 18, 19, 20, 22 and 23 to give compositions for film formation. The weight of each organic solvent required to completely dissolve the aromatic compound at room temperature (25° C.) was measured, and solubility (% by weight) was calculated. The determination of the point of complete dissolution was confirmed by visual observation.

[3] = Solution for forming an organic semiconductor layer: dissolved in toluene at 50° C., state after cooling to 25° C.; settings: 0.20% by weight in toluene, dissolved at 50° C., after 10 hours at 25° C.
Experimental: In air, 1.74 mg of the 2,8-di(2-cyclohexylethyl)anthra[1,2-b:5,6-b′]dithiophene synthesized in Example 2 (compound 2) and 868 mg of toluene (FUJIFILM Wako Pure Chemical Industries Corporation, pure grade) were added to a 10-ml sample tube. After dissolution by heating to 50° C., the solution was allowed to cool at room temperature (25° C.), whereby a solution for forming an organic semiconductor layer was prepared. […] (the concentration of compound 2 was 0.20% by weight), confirming that compound 2 is a compound suitable for film formation by drop casting and inkjet printing.

| state of solution for forming an organic semiconductor layer [1] | Solubility [% by weight] n-octane [2] [% by weight] | Solubility [% by weight] Toluene [2] [% by weight] | state of solution for forming an organic semiconductor layer [3] | SMILES |
| --- | --- | --- | --- | --- |
| solid precipitation observed | – | – | – | c1ccc(-c2ccc3c(c2)sc2c4ccc(-c5ccccc5)cc4sc32)cc1 [2,7-diphenyl[1]benzothieno[3,2-b][1]benzothiophene] |
| – | – | – | remained in solution form | CCCCCCc1cc2ccc3cc4c(ccc5cc(CCCC6CCCC6)sc54)cc3c2s1 [Compound 31, 2-(3-Cyclopentylpropyl)-8-hexylanthra[1,2-b:5,6-b′]dithiophene] |
| – | – | – | remained in solution form | c1cc2cc(CCC3CCCC3)sc2c2cc3ccc4cc(CCC5CCCC5)sc4c3cc12 [Compound 10, 2,8-Di(2-cyclopentylethyl)anthra[1,2-b:5,6-b′]dithiophene] |
| – | – | – | remained in solution form | CCCCCCCCc1cc2ccc3cc4c(ccc5cc(CCCCCCCC)sc54)cc3c2s1 [2,8-dioctylanthra[1,2-b:5,6-b′]dithiophene, reference compound] |
| – | ≥0.5 | ≥1.0 | – | CCCCc1cc2ccc3cc4c(ccc5cc(CCC6CCCCC6)sc54)cc3c2s1 [Compound 6, 2-Butyl-8-(2-cyclohexylethyl)anthra[1,2-b:5,6-b′]dithiophene] |
| – | ≥0.5 | ≥1.0 | remained in solution form | CCCCCCc1cc2ccc3cc4c(ccc5cc(CCC6CCCC6)sc54)cc3c2s1 [Compound 13, 2-(2-Cyclopentylethyl)-8-hexylanthra[1,2-b:5,6-b′]dithiophene] |
| – | – | – | remained in solution form | c1cc2cc(CCC3CCCCC3)sc2c2cc3ccc4cc(CCC5CCCCC5)sc4c3cc12 [Compound 2, 2,8-Di(2-cyclohexylethyl)anthra[1,2-b:5,6-b′]dithiophene] |
| – | ≥0.2 | ≥1.0 | – | CC(C)Cc1cc2ccc3cc4c(ccc5cc(CCC6CCCCC6)sc54)cc3c2s1 [Compound 5, 2-(2-Cyclohexylethyl)-8-isobutylanthra[1,2-b:5,6-b′]dithiophene] |
| – | ≥0.2 | ≥1.0 | remained in solution form | CCCCCCc1cc2ccc3cc4c(ccc5cc(CCCC6CCCCC6)sc54)cc3c2s1 [Compound 18, 2-(3-Cyclohexylpropyl)-8-hexylanthra[1,2-b:5,6-b′]dithiophene] |
| – | ≥0.5 | ≥1.0 | remained in solution form | c1cc2cc(CCC3CCCCC3)sc2c2c1-c1c-2ccc2cc(CCC3CCCCC3)sc12 [Compound 20, 2,7-Bis(2-cyclohexylethyl)biphenyleno[1,2-b:5,6-b′]dithiophene] |
| – | ≥0.2 | ≥1.0 | – | c1cc2cc(CCC3CCCC3)sc2c2c1-c1c-2ccc2cc(CCC3CCCC3)sc12 [Compound 23, 2,7-Bis(2-cyclopentylethyl)biphenyleno[1,2-b:5,6-b′]dithiophene] |

The next lines start with the compound.

| SMILES | state of solution for forming an organic semiconductor layer [1] | Solubility [% by weight] n-octane [2] [% by weight] | Solubility [% by weight] Toluene [2] [% by weight] | state of solution for forming an organic semiconductor layer [3] |
| --- | --- | --- | --- | --- |
| c1cc2ccc3c(c2s1)-c1ccc2cc(CCC4CCCCC4)sc2c1-3 [Compound 19, 2-(2-Cyclohexylethyl) biphenyleno[1,2-b:5,6-b′]dithiophene] | – | ≥0.5 | ≥1.0 | – |
| c1cc2ccc3cc4c(ccc5cc(CCCC6CCCCC6)sc54)cc3c2s1 [Compound 15, 2-(3-Cyclohexylpropyl)anthra[1,2-b:5,6-b′]dithiophene] | – | ≥0.5 | ≥1.0 | – |
| CC(C)Cc1cc2ccc3cc4c(ccc5cc(CCC6CCCC6)sc54)cc3c2s1 [Compound 12, 2-(2-Cyclopentylethyl)-8-isobutylanthra[1,2-b:5,6-b′]dithiophene] | – | ≥0.5 | ≥1.0 | remained in solution form |
| CCCc1cc2ccc3cc4c(ccc5cc(CCC6CCCCC6)sc54)cc3c2s1 [Compound 4, 2-(2-Cyclohexylethyl)-8-propylanthra[1,2-b:5,6-b′]dithiophene] | – | ≥0.5 | ≥1.0 | – |
| CCCCCc1cc2ccc3cc4c(ccc5cc(CCC6CCCCC6)sc54)cc3c2s1 [Compound 7, 2-(2-Cyclohexylethyl)-8-pentylanthra[1,2-b:5,6-b′]dithiophene] | – | ≥0.2 | ≥1.0 | – |
| c1cc2ccc3cc4c(ccc5cc(CCC6CCCCC6)sc54)cc3c2s1 [Compound 1, 2-(2-Cyclohexylethyl)anthra[1,2-b:5,6-b′]dithiophene] | – | ≥0.1 | ≥1.0 | – |
| CCCCCCCCc1ccc(CCc2cc3ccc4cc5c(ccc6cc(CCC7CCCCC7)sc65)cc4c3s2)cc1 [Compound 40, 2-(2-Cyclohexylethyl)-8-(4-octylphenylethyl)anthra[1,2-b:5,6-b′]dithiophene] | – | – | – | remained in solution form |
| c1cc2cc(CCC3CCCCC3)sc2c2cc3ccc4cc(CCC5CCCC5)sc4c3cc12 [Compound 14, 2-(2-Cyclohexylethyl)-8-(2-cyclopentylethyl)anthra[1,2-b:5,6-b′]dithiophene] | – | ≥1.0 | ≥1.0 | remained in solution form |
| c1cc2ccc3cc4c(ccc5cc(CCC6CCCC6)sc54)cc3c2s1 [Compound 9, 2-(2-Cyclopentylethyl) anthra[1,2-b:5,6-b′]dithiophene] | – | ≥1.0 | ≥1.0 | – |
| CCCCCc1cc2ccc3cc4c(ccc5cc(CCCC6CCCCC6)sc54)cc3c2s1 [Compound 25, 2-(3-Cyclohexylpropyl)-8-pentylanthra[1,2-b:5,6-b′]dithiophene] | – | – | – | remained in solution form |
| CCCCCCc1cc2ccc3cc4c(ccc5cc(CCC6CCCCC6)sc54)cc3c2s1 [Compound 8, 2-(2-Cyclohexylethyl)-8-hexylanthra[1,2-b:5,6-b′]dithiophene] | – | ≥0.5 | ≥1.0 | remained in solution form |
